# Assay results published in ChEMBL document CHEMBL4342436, “Artemisia: a promising plant for the treatment of cancer” (Bioorg Med Chem, 2020).
# Key:
# HT-29 = experiment: Cytotoxicity against human HT-29 cells; type: functional; conditions: read-out: ED50 (the source's name)
# KB [1] = experiment: (§1) Cytotoxicity against human KB cells; type: functional; conditions: read-out: ED50 (the source's name)
# P388 = experiment: Cytotoxicity against mouse P388 cells; type: functional; conditions: read-out: ED50 (the source's name)
# MCF7 [2] = experiment: (§2) Cytotoxicity against human MCF7 cells; type: functional; conditions: read-out: ED50 (the source's name)
# PANC-1 [3] = experiment: Antitumour activity against human PANC1 cells xenografted in ip dosed nude BALB/c mouse assessed as tumor weight for 18 days; type: functional
# PANC-1 [4] = experiment: Cytotoxicity against human PANC1 cells assessed as cell viability after 24 hrs by MTT assay relative to control; type: functional
# CFPAC-1 [5] = experiment: Cytotoxicity against human CFPAC-1 cells assessed as cell viability after 24 hrs by MTT assay relative to control; type: functional
# CFPAC-1 [6] = experiment: Antitumour activity against human CFPAC-1 cells xenografted in ip dosed nude BALB/c mouse assessed as tumor weight for 18 days; type: functional
# U-937 [7] = experiment: Cytotoxicity against human U937 cells after 48 hrs by MTT assay; type: functional, cell-based; conditions: U-937, 48 h
# A549 = experiment: Cytotoxicity against human A549 cells after 48 hrs by MTT assay; type: functional, cell-based; conditions: A549, 48 h
# HeLa [8] = experiment: Cytotoxicity against human HeLa cells after 48 hrs by MTT assay; type: functional, cell-based
# [9] = Cytotoxicity against human YD-10B cells assessed as reduction in cell viability after 48 hr by MTT asssay; type: functional, cell-based
# HeLa [10] = experiment: Cytotoxicity against human HeLa cells; type: functional, cell-based
# [11] = Antitumour activity against mouse mammary cancer cells transplanted in Balb/c mouse assessed as tumour size at 6 mg/kg, ip for 13 days; type: functional
# U-937 [12] = experiment: Antitumour activity against human U937 cells xenografted in NOD/SCID mouse assessed as tumor growth inhibition at 50 mg/kg, ip for 20 days relative to control; type: functional; conditions: U-937, ip, 480 h, read-out: TGI
# [13] = Cytotoxicity against human U251/CP2 cells assessed as reduction in cell viability after 24 hrs by MTT assay; type: functional, cell-based; conditions: U-251, 24 h
# C6 = experiment: Induction of apoptosis in rat C6 cells assessed as apoptotic cells at 200 uM after 24 hr in presence of holo-transferrin by Annexin V-FITC/propidium iodide staining based flow cytometric analysis relative to control; type: functional
# PC-14 = experiment: Induction of apoptosis in human PC14 cells assessed as increase in apoptotic cells at 30 uM after 24 hrs by Annexin V-FITC/propidium iodide staining based flow cytometric analysis relative to control; type: functional
# U-937 [14] = experiment: Induction of apoptosis in human U937 cells assessed as increase in apoptotic cells at 60 uM after 24 hrs by Annexin V-FITC/propidium iodide staining based flow cytometric analysis relative to control; type: functional
# [15] = Cytotoxicity against human U373 cells assessed as reduction in cell viability after 24 hrs by MTT assay; type: functional, cell-based, U-373MG ATCC; conditions: U373 MG
# HCT-116 = experiment: Induction of apoptosis in human HCT116 cells assessed as increase in apoptotic cells at 40 uM after 24 hrs by Annexin V-FITC/propidium iodide staining based flow cytometric analysis relative to control; type: functional
# BGC-823 = experiment: Cytotoxicity against human BGC823 cells; type: functional, cell-based
# HCT-8 = experiment: Cytotoxicity against human HCT8 cells; type: functional, cell-based
# SW-620 = experiment: Antitumour activity against human SW620 cells xenografted in mouse assessed as inhibition of tumour growth at 60 mg/kg relative to control; type: functional; conditions: read-out: TGI
# NCI-H460 = experiment: Cytotoxicity against human NCI-H460 cells after 24 hrs by MTT assay; type: functional, cell-based; conditions: NCI-H460, 24 h
# MCF7 [16] = experiment: Cytotoxicity against human MCF7 cells after 24 hrs by MTT assay; type: functional, cell-based; conditions: MCF7, 24 h
# HepG2 [17] = experiment: Cytotoxicity against human HepG2 cells after 24 hrs by MTT assay; type: functional, cell-based; conditions: HepG2, 24 h
# MCF7 [18] = experiment: as §2; type: functional, cell-based
# SK-MEL-2 = experiment: Cytotoxicity against human SK-MEL-2 cells; type: functional, cell-based
# KB [19] = experiment: as §1; type: functional, cell-based
# LNCaP = experiment: Cytotoxicity against human LNCAP cells; type: functional, cell-based
# HepG2 [20] = experiment: Cytotoxicity against human HepG2 cells; type: functional, cell-based
# MDA-MB-435 = experiment: Cytotoxicity against human MDA-MB-435 cells after 72 hrs by MTT assay; type: functional, cell-based; conditions: MDA-MB-435, 72 h
# COLO 205 = experiment: Cytotoxicity against human COLO205 cells after 72 hrs by MTT assay; type: functional, cell-based; conditions: COLO 205, 72 h
smiles,measurement,setting,value
COc1ccc(-c2oc3cc(OC)c(OC)c(O)c3c(=O)c2O)cc1OC,EC50,HT-29,1.25 to 9.62 µg/mL
same,EC50,KB [1],1.25 to 9.62 µg/mL
same,EC50,P388,1.25 to 9.62 µg/mL
same,EC50,MCF7 [2],1.25 to 9.62 µg/mL
CC(C)[C@]12O[C@H]1[C@@H]1O[C@]13[C@]1(O[C@H]1C[C@H]1C4=C(CC[C@@]13C)C(=O)OC4)[C@@H]2O [TRIPTOLIDE],Activity,PANC-1 [3],<0.4 g
same,Activity,PANC-1 [4],<10%
same,Activity,CFPAC-1 [5],<10%
same,Activity,CFPAC-1 [6],<0.4 g
C=C1C(=O)O[C@H]2[C@H]1[C@@H](OC(=O)/C(C)=C\C)CC(C)=C1C[C@@H]3O[C@]3(C)[C@@H]12,IC50,U-937 [7],16 to 43.5 µg/mL
same,IC50,A549,16 to 43.5 µg/mL
same,IC50,HeLa [8],16 to 43.5 µg/mL
CC(=O)O[C@H]1C(=O)[C@@]2(C)[C@H]([C@H](OC(=O)c3ccccc3)[C@]3(O)C[C@H](OC(=O)[C@H](O)[C@@H](NC(=O)c4ccccc4)c4ccccc4)C(C)=C1C3(C)C)[C@]1(OC(C)=O)CO[C@@H]1C[C@@H]2O [PACLITAXEL],IC50,[9],13.1 µM
O=c1cc(-c2ccc(O)cc2)oc2cc(O)cc(O)c12 [APIGENIN],IC50,HeLa [10],6.09 µM
CCO[C@H]1O[C@@H]2O[C@@]3(C)CC[C@H]4[C@H](C)CC[C@@H]([C@H]1C)[C@@]24OO3 [ARTEMOTIL],Activity,[11],800 mm3
C[C@H]1[C@@H](O)O[C@@H]2O[C@@]3(C)CC[C@H]4[C@H](C)CC[C@@H]1[C@@]24OO3 [ARTENIMOL],inhibition in vivo at 50 mg/kg,U-937 [12],70%
same,IC50,[13],1.17 to 23.6 µg/mL
same,Activity,C6,66.42%
same,Activity,PC-14,45%
same,Activity,U-937 [14],70%
same,IC50,[15],1.17 to 23.6 µg/mL
same,Activity,HCT-116,48.3%
C=C1C(=O)O[C@@H]2/C=C(\C)[C@@H](OC(=O)[C@@H](C)CC)C/C=C(\C)CC[C@@H]12,IC50,U-937 [7],16 to 43.5 µg/mL
same,IC50,A549,16 to 43.5 µg/mL
same,IC50,HeLa [8],16 to 43.5 µg/mL
O=c1cc(-c2ccc(O)c(O)c2)oc2cc(O)cc(O)c12 [LUTEOLIN],IC50,HeLa [10],16.3 µM
C=C(C(=O)OC)[C@@H]1CC[C@@]2(C)C(=O)C=C[C@@](C)(O)[C@@H]2[C@H]1O,IC50,BGC-823,6.25 µM
same,IC50,HCT-8,9.13 µM
COc1ccc(-c2cc(=O)c3c(O)c(O)c(OC)cc3o2)cc1OC,inhibition in vivo at 60 mg/kg,SW-620,44.6%
CC1=C[C@@H]2[C@@H]([C@@H](C)C(=O)O)CC[C@@](C)(O)[C@@H]2C[C@H]1O,IC50,NCI-H460,26.8 to 48.7 µM
same,IC50,MCF7 [16],26.8 to 48.7 µM
same,IC50,HepG2 [17],26.8 to 48.7 µM
C=C1C(=O)O[C@H]2[C@H]1CC[C@@](C)(O)C1=C[C@H](O)[C@@](C)(O)[C@@H]12,IC50,MCF7 [18],> 100 µM
same,IC50,SK-MEL-2,> 100 µM
same,IC50,KB [19],> 100 µM
same,IC50,LNCaP,> 100 µM
same,IC50,HepG2 [20],> 100 µM
C=C1C(=O)O[C@H]2[C@H]1[C@@H](OC(=O)C(C)CC)CC(=C)[C@]1(O)CC=C(C)[C@H]21 (stereo partly drawn),IC50,MDA-MB-435,7 to 10 µM
same,IC50,COLO 205,7 to 10 µM
